This note sets out measurements from patent US20050222186A1, “Substituted diaminopyrimidines” (Altana Pharma AG, priority 2002, published 2005).

The target in test [1] is recombinant human PKC-θ enzyme (Homo sapiens, UniProt Q04759). The test is described as follows: Protein Kinase C-θ assay (SPA, 33P-ATP phosphorylation of biotinylated substrate peptide). Format: biochemical. The note with it: 1 μM ATP, 40 min at room temperature, 1% DMSO, read-out: Inhibition of PKC-θ activity [measured as IC50 (μmol/l)]. As to the method: The compounds of formula 1 were tested for their activity on PKC-θ according to the following method. The assay was performed in 96 well microtiter plates (Perkin Elmer Wallac) at a final assay volume of 200 μl. The reaction mixture (50 μl) contained 10 μl of recombinant human PKC-θ enzyme together with 5 μl of the test compound and 3 μM biotinylated PKC-θ substrate peptide (Biotin-RKRQRSMRRRVHOH), 160 μM phosphatidylserine, 0.3 mg/ml BSA, 1 μM ATP and 2 μCi of ^33γ-ATP (Amersham) in 40 mM Tris-buffer pH 7.4. Incubation was performed for 40 min at room temperature. The reaction was stopped by adding 150 μl of a mixture containing 10 mM ATP and 1.33 mg/ml streptavidin coated yttrium silicate SPA beads (Amersham). Incorporated radioactivity (cpm) was measured for 2 min in a radioactivity counter (Wallac MicroBeta JET). […] IC50 values for inhibition of PKC-θ were calculated from the concentration-inhibition curves by nonlinear-regression.

The next test deals with CD4+ lymphocytes. Kind of test: CD4+ proliferation assay (αCD3/αCD28 stimulation, 3H-methylthymidin incorporation). Format: cell-based. The settings on record: Lymphocyte, αCD3/αCD28 stimulated CD4+ lymphocytes, 48 h incubation, read-out: Inhibition of CD4+ cell proliferation [measured as IC50 (μmol/l)]. As to the method: (§1) CD4+ lymphocytes were purified as described by Hatzelmann and Schudt (J Pharmacol Exp Ther 297: 267-279) and resuspended in assay medium (RPMI 1640/10% fetal calf serum (FCS) containing 2 mM Glutamine, 1% sodiumpyruvate, 1% non-essential amino acids and 1% penicillin/streptomycin) at a density of 1×10^6 cells/ml. 96 well plates were coated with αCD3 antibodies (0.3 μg/well; Ortho-clone OKT-3, Jansen-Cilag) for 2.5 h at 37° C. in 5% CO2 and then washed twice with PBS (200 μl/well). Prior to plating of the cells (200 μl, 2×10^5 cells) the compounds of formula 1 dissolved in 2% DMSO were added to the antibody-coated plates at the desired concentrations. Following a preincubation period of 30 min at 37° C. and 5% CO2 10 μl of αCD28 antibody (3 μg/ml, Beckman) were added and incubation continued for 48 h at 37° C. and 5% CO2. 18 h prior to cell harvest 10 μl of ^3H-methylthymidin (0.2 μCi, Amersham) were added. After 48 h total incubation time the cells were lysed using deionized water and radiolabeled DNA was immobilized on 96 well filter plates using a Tomtec device. The plates were dried at 60° C. for 1 h and overlayed with 40 μl Microscint-O (Packard) before counting in a Topcount radioactivity counter (Packard). Calculation of IC50 values was performed as described above.

The subject of another test is CD4+ T lymphocytes. The test is described as follows: CD4+ IL-2 secretion assay (ELISA of supernatants). The settings on record: αCD3/αCD28 stimulated CD4+ T lymphocytes, 48 h incubation, IL-2 in supernatants by ELISA; read-out: Inhibition of IL-2 secretion in CD4+ cell [measured as IC50 (μmol/l)]. Format: cell-based. As for the experimental part:
as §1
CD4+ T lymphocytes were stimulated and treated with compounds of formula 1 as described above for the CD4+ proliferation assay. Following a 48 h incubation period IL-2 levels in the supernatants (50 μl/well) were determined by ELISA (Beckman Coulter). Calculation of IC50 values was performed as described above.
A general note: In an ELISA, binding on a coated surface is turned into a signal by an enzyme label.

Chain of recombinant human PKC-θ enzyme (Q04759 whole entry): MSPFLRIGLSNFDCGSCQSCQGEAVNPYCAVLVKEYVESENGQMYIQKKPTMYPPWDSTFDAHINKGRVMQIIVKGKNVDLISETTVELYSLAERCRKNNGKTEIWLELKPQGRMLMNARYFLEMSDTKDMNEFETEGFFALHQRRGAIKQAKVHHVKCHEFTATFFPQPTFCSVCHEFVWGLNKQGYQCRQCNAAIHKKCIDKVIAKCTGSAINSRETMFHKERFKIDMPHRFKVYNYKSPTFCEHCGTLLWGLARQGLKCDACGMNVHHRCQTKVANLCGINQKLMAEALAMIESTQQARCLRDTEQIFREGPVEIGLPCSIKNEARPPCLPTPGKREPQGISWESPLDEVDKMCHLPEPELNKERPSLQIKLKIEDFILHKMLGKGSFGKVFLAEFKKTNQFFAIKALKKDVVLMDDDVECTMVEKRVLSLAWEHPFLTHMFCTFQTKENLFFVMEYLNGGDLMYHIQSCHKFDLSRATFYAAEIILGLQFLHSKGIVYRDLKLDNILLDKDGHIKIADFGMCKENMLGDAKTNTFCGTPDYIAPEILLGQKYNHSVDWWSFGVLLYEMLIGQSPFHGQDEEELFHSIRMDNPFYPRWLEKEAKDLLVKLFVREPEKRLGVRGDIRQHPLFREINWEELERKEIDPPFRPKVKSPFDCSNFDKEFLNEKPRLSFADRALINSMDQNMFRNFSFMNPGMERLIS

For `c1ccc(CN2CCC(Nc3nc(NCc4ccccn4)ncc3-c3ccsc3)CC2)cc1` [Example 1, [1-Benzyl(4-piperidyl)]{2-[(2-pyridylmethyl)amino]-5-(3-thienyl)pyrimidin-4-yl}amine], the IC50 (in test [1]; in the test on CD4+ lymphocytes; in the test on CD4+ T lymphocytes) was less than 4 µmol/L throughout.
Consider `NC(=O)c1ccc(-c2cnc(NCc3ccncc3)nc2NC2CCN(Cc3ccccc3)CC2)cc1` [Example 6, {5-(Phenyl-4-carboxamido)-2-[(4-pyridylmethyl)amino)pyrimidin-4-yl}[1-benzyl(4-piperidyl)]-amine], for which the IC50 in the test on CD4+ T lymphocytes was less than 4 µmol/L.
With `c1ccc(CN2CCC(Nc3nc(NCc4ccncc4)ncc3-c3cccs3)CC2)cc1` [Example 8, {5-(2-Thienyl)-2-[(4-pyridylmethyl)amino)pyrimidin-4-yl}[1-benzyl(4-piperidyl)]amine], the IC50 with CD4+ lymphocytes and in the test with CD4+ T lymphocytes was less than 4 µmol/L throughout.
`c1ccc(CN2CCC(Nc3nc(NCc4ccccn4)ncc3-c3ccco3)CC2)cc1` [Example 12, {5-(2-Furanyl)-2-[(2-pyridylmethyl)amino)pyrimidin-4-yl}[1-benzyl(4-piperidyl)]amine]: the IC50 (in test [1]; with CD4+ T lymphocytes) was less than 4 µmol/L each time.
On to `c1ccc(CN2CCC(Nc3nc(NCc4ccccn4)ncc3-c3ccoc3)CC2)cc1` [Example 13, {5-(3-Furanyl)-2-[(2-pyridylmethyl)amino)pyrimidin-4-yl}[1-benzyl(4-piperidyl)]amine], for which the IC50 (in test [1]; with CD4+ T lymphocytes) was less than 4 µmol/L each time.
Regarding `c1ccc(CN2CCC(Nc3nc(NCc4ccccn4)ncc3-c3cccs3)CC2)cc1` [Example 14, {5-(2-Thienyl)-2-[(2-pyridylmethyl)amino)pyrimidin-4-yl}[1-benzyl(4-piperidyl)]amine], the IC50 (in test [1]; with CD4+ lymphocytes; with CD4+ T lymphocytes) was less than 4 µmol/L in each case.
For the molecule `NC(=O)c1ccc(-c2cnc(NCc3ccccn3)nc2NC2CCN(Cc3ccccc3)CC2)cc1` [Example 15], the IC50 (in test [1]; in the test with CD4+ lymphocytes; in the test on CD4+ T lymphocytes) was less than 4 µmol/L each time.
Regarding `CC(=O)c1ccc(-c2cnc(NCc3ccccn3)nc2NC2CCN(Cc3ccccc3)CC2)cc1` [Example 21], in test [1], the IC50 is less than 4 µmol/L.
Same read-out and setting: in the case of `CC(=O)c1cccc(-c2cnc(NCc3ccccn3)nc2NC2CCN(Cc3ccccc3)CC2)c1` [Example 22, 1-(3-[4-(1-Benzyl-piperidinylamino)-2-[(pyridin-2-ylmethyl)-amino]-pyrimidin-5-yl}phenyl)-ethanone] it was less than 4 µmol/L.
